Source: patent publication US8008301B2, “Histamine H3 receptor agents, preparation and therapeutic uses” (Eli Lilly and Company, priority 2004, dated 2011)

Biological target: T1, H3R membranes (H3R8-expressing HEK293 cell line) (Homo sapiens, UniProt Q9Y5N1)
T1 construct: expressed in transfected cells; membranes
Assay: [35S] GTPγ[S] binding assay, antagonist activity in the presence of agonist R(-)alpha methylhistamine
Format: biochemical
Conditions: inhibition of [35S]GTPγS binding to H3R membranes in presence of agonist
Method: Membranes isolated as described in (Preparation of Histamine Receptor Subtype Membranes) were used in a [35S]GTPχS functional assay. Binding of [35S]GTPχS to membranes indicates agonist activity. Compounds of the invention of Formula I or Formula II were tested for their ability to inhibit binding in the presence of agonists. Alternately, the same transfected cell lines were used for a cAMP assay wherein H3R agonists inhibited forskolin-activated synthesis of cAMP. Compounds of Formula I or Formula II were tested for their ability to permit forskolin-stimulated cAMP synthesis in the presence of agonist.
Antagonist activity of selected compounds was tested for inhibition of [35S] GTP γ [S] binding to H3R membranes in the presence of agonists. Assays were run at room temperature in 20 mM HEPES, 100 mM NaCl, 5 mM MgCl2 and 10 uM GDP at pH 7.4 in a final volume of 200 ul in 96-well Costar plates. Membranes isolated from H3R8-expressing HEK293 cell line (20 ug/well) and GDP were added to each well in a volume of 50 μl assay buffer. Antagonist was then added to the wells in a volume of 50 μl assay buffer and incubated for 15 minutes at room temperature. […] Plates were counted in Wallac Trilux 1450 Microbeta scintillation counter for 1 minute. […]

T1 sequence (Q9Y5N1 whole entry): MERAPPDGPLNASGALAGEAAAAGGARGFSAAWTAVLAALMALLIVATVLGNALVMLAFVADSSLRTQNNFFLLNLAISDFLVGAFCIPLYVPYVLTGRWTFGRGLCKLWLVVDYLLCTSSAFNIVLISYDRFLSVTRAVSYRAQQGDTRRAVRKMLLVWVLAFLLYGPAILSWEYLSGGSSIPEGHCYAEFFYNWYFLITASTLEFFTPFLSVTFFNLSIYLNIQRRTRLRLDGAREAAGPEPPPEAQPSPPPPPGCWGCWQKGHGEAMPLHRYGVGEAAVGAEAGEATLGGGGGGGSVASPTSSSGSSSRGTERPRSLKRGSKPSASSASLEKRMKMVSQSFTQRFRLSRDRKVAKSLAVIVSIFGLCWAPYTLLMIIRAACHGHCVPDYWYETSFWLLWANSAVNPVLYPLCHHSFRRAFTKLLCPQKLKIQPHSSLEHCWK

- Ki: 49 nM
Compound: O=C(c1ccc(-c2ccccn2)cc1)N1CCC[C@H]1CN1CCCC1
